The record followed here is US20260226054A1, “CRYSTAL FORM AND AMORPHOUS SUBSTANCE OF INDOLINE SPIRO COMPOUND, AND PREPARATION METHOD THEREFOR AND USE THEREOF” (CHANGCHUN GENESCIENCE PHARMACEUTICAL CO., LTD., priority 2022, published 2026).

In one series the target is T1, human GHSR (Homo sapiens, UniProt Q92847).
T1 construct: expressed in transfected cells
As to the kind of experiment: Agonistic activity on human GHSR in human GHSR/CHO cells (FLIPR calcium). Conditions: human GHSR/CHO stable transformant cells, Fluo-4 FLIPR. In kind it is cell-based. As to the method: This method is used for determining the agonistic activity effect of the compound in the present invention on human GHSR protein expressed in human GHSR/CHO stable transformant cells.
Preparation of buffer solution: HBSS (1X): HEPES (1M)=49:1, 0.5% BSA added.
Human GHSR/CHO containing stable transformant cells were inoculated in a 384-well plate, a cell plate was taken out after overnight, the culture medium was removed, and 20 μL of buffer solution was slowly added in each well, then 20 μL of 2X Fluo-4 Direct™ No-wash Loading Buffer was added in each well. The cell plate was incubated in an incubator containing 5% of CO2 at 37° C. for 50 min, and the cell plate was taken out and placed at room temperature for 10 min. 30 μL of buffer solution was added to each well in the compound plate; an additional buffer solution plate was prepared, and 30 μL of buffer solution was added to each well. […] 10 μL of buffer solution was transferred to the cell plate, the fluorescence signal values were read. 10 μL of compound was transferred to the cell plate, the fluorescence signal values were read. The maximum-minimum values from the 91st signal point to the 230th signal point were calculated through the FLIPR program. The EC50 value of the compound could be calculated by the software using the fluorescence value corresponding to the different concentrations.

The next series in a line: in vitro. As to conditions: human, Caco-2, pH 7.4. As to the method: A transport buffer solution in the study was HBSS containing 10.0 mM of HEPSS, and had pH of 7.40±0.05. The compound to be tested was subjected to bidirectional test at 2.00 μM, and the final concentration of DMSO was required to be less than 1%. In a CO2 incubator at 37±1° C., the cell plate was stood and incubated for 2 h under CO2 at 5% […] and saturated humidity. After mixing all samples with acetonitrile containing internal standard, the mixture was centrifuged at 3200×g for 10 min. The compound was tested, 100 μL of supernatant was diluted with 100 μL of ultrapure water for LC-MS/MS analysis. The concentration of the test compound and a control compound (Digoxin as a model verification compound and ibutamoren as a positive control) in a donor solution and a receiver solution was quantified by an LC-MS/MS method using the peak area ratio of the analyte/internal standard. After transport determination, a lucifer yellow exclusion determination was carried out to determine the integrity of the Caco-2 cell monolayer.

T1 sequence (Q92847 whole entry): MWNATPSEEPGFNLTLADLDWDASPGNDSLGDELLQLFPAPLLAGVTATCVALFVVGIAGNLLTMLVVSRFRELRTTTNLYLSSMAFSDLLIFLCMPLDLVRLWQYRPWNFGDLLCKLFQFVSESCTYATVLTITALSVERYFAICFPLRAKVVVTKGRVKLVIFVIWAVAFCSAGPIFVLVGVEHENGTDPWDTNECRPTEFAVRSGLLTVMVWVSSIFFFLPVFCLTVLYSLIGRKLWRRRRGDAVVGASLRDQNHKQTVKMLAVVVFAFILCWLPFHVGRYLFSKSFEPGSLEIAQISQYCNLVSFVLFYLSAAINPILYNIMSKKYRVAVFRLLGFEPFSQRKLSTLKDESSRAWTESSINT

`CC(OC(=O)NC(C)(C)C(=O)N[C@H](COCc1ccccc1)C(=O)N1CCC2(CC1)CN(S(C)(=O)=O)c1ccccc12)OC(=O)C(C)C` (stereo partly drawn) [Compound 1e, (4R)-7,7-dimethyl-4-(1-(methylsulfonyl)spiro[indoline-3,4′-piperidine]-1′-carbonyl)-6,9-dioxo-1-phenyl-2,10-dioxa-5,8-diazadodecane-11-ylisobutyrate]: the EC50 at human GHSR amounted to 14.6 nM. In the series “in vitro”, the Papp A→B at 2 h, 2 μM came to 0.0518 ×10⁻⁶ cm/s; the Papp B→A at 2 h, 2 μM turned out to be 8.8 ×10⁻⁶ cm/s; the efflux ratio at 2 h, 2 μM came to 170.
